Toxic doses and inconclusive results are not listed. Cut-off read from the data, not from the text of the source: active = T/C of 150% or more; inactive = T/C below 125%.
Test system: L1210 leukemia ip in BDF1 mice, survival T/C
Test: NCI In Vivo Anticancer Drug Screen. Data for tumor model L1210 Leukemia (intraperitoneal) in B6D2F1 (BDF1) mice
Conditions: endpoint: mean survival time, higher = longer survival
In short: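 Value reflects the ratio of survival in compound-treated mice to survival in vehicle-treated controls, with both groups carrying the same transplanted tumor.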

[1] = dose: 100.0 mg/kg/injection, schedule: Q04DX002 (ip), vehicle: Klucel (hydroxypropylcellulose) (HPC)
[2] = dose: 200.0 mg/kg/injection, schedule: Q04DX002 (ip), vehicle: Klucel (hydroxypropylcellulose) (HPC)
[3] = dose: 100.0 mg/kg/injection, schedule: Q01DX001 (ip), vehicle: carboxymethylcellulose (CMC)
[4] = dose: 200.0 mg/kg/injection, schedule: Q01DX001 (ip), vehicle: carboxymethylcellulose (CMC)
[5] = dose: 400.0 mg/kg/injection, schedule: Q01DX001 (ip), vehicle: carboxymethylcellulose (CMC)
[6] = dose: 100.0 mg/kg/injection, schedule: Q04DX003 (ip), vehicle: saline sonified
[7] = dose: 200.0 mg/kg/injection, schedule: Q04DX003 (ip), vehicle: saline sonified
[8] = dose: 400.0 mg/kg/injection, schedule: Q04DX003 (ip), vehicle: saline sonified
[9] = dose: 50.0 mg/kg/injection, schedule: Q01DX001 (ip), vehicle: Klucel (hydroxypropylcellulose) (HPC)
[10] = dose: 400.0 mg/kg/injection, schedule: Q01DX001 (ip), vehicle: Klucel (hydroxypropylcellulose) (HPC)
[11] = dose: 100.0 mg/kg/injection, schedule: Q04DX003 (ip), vehicle: saline with Tween-80
[12] = dose: 200.0 mg/kg/injection, schedule: Q04DX003 (ip), vehicle: saline with Tween-80
[13] = dose: 400.0 mg/kg/injection, schedule: Q04DX003 (ip), vehicle: saline with Tween-80
[14] = dose: 100.0 mg/kg/injection, schedule: Q01DX009 (ip), vehicle: Klucel (hydroxypropylcellulose) (HPC)
[15] = dose: 100.0 mg/kg/injection, schedule: Q04DX003 (ip), vehicle: Klucel (hydroxypropylcellulose) (HPC)
[16] = dose: 200.0 mg/kg/injection, schedule: Q01DX009 (ip), vehicle: Klucel (hydroxypropylcellulose) (HPC)
[17] = dose: 200.0 mg/kg/injection, schedule: Q04DX003 (ip), vehicle: Klucel (hydroxypropylcellulose) (HPC)
[18] = dose: 400.0 mg/kg/injection, schedule: Q01DX009 (ip), vehicle: Klucel (hydroxypropylcellulose) (HPC)
[19] = dose: 400.0 mg/kg/injection, schedule: Q04DX003 (ip), vehicle: Klucel (hydroxypropylcellulose) (HPC)
[20] = dose: 100.0 mg/kg/injection, schedule: Q01DX009 (ip), vehicle: saline with Tween-80
[21] = dose: 200.0 mg/kg/injection, schedule: Q01DX009 (ip), vehicle: saline with Tween-80
[22] = dose: 400.0 mg/kg/injection, schedule: Q01DX009 (ip), vehicle: saline with Tween-80

Measured: T/C

O=C1OCCN1/N=C\c1ccccc1
inactive: dose: 100.0 mg/kg/injection, schedule: Q01DX009 (ip), vehicle: other 116 % of control | dose: 200.0 mg/kg/injection, schedule: Q01DX009 (ip), vehicle: other 98 % of control | dose: 400.0 mg/kg/injection, schedule: Q01DX009 (ip), vehicle: other 97 % of control

COC(=O)c1ccccc1NC(=O)COc1cc(Cl)c(Cl)cc1Cl
inactive: [1] 96 % of control | [2] 89 % of control | dose: 400.0 mg/kg/injection, schedule: Q04DX002 (ip), vehicle: Klucel (hydroxypropylcellulose) (HPC) 86 % of control

N#CSCCSC#N
inactive: dose: 10.0 mg/kg/injection, schedule: Q04DX003 (ip), vehicle: Klucel (hydroxypropylcellulose) (HPC) 99 % of control

COC1OCC(NC(C)=O)C(O)C1O (centres undefined)
inactive: dose: 50.0 mg/kg/injection, schedule: Q01DX001 (ip), vehicle: saline 102 % of control | dose: 100.0 mg/kg/injection, schedule: Q01DX001 (ip), vehicle: saline 102 % of control | dose: 200.0 mg/kg/injection, schedule: Q01DX001 (ip), vehicle: saline 100 % of control | dose: 400.0 mg/kg/injection, schedule: Q01DX001 (ip), vehicle: saline 107 % of control

CC1(C)N=C(N)N=C(N)N1c1cccc(OCc2cccc(N)c2)c1
inactive: dose: 5.0 mg/kg/injection, schedule: Q01DX001 (ip), vehicle: saline 98 % of control | dose: 10.0 mg/kg/injection, schedule: Q01DX001 (ip), vehicle: saline 101 % of control | dose: 20.0 mg/kg/injection, schedule: Q01DX001 (ip), vehicle: saline 96 % of control | dose: 40.0 mg/kg/injection, schedule: Q01DX001 (ip), vehicle: saline 93 % of control | dose: 80.0 mg/kg/injection, schedule: Q01DX001 (ip), vehicle: saline 113 % of control

COc1ccccc1-c1ccc([N+](=O)[O-])cc1[N+](=O)[O-]
inactive: [3] 100 % of control | [4] 105 % of control | [5] 102 % of control

CCNC(=S)NCCO
inactive: [6] 97 % of control | [7] 90 % of control | [8] 97 % of control

COc1ccc(C(OCC2OC(n3nnc4c(=O)[nH]c(N)nc43)CC2OC(C)=O)(c2ccccc2)c2ccc(OC)cc2)cc1 (centres undefined)
inactive: dose: 12.5 mg/kg/injection, schedule: Q01DX001 (ip), vehicle: Klucel (hydroxypropylcellulose) (HPC) 103 % of control | dose: 25.0 mg/kg/injection, schedule: Q01DX001 (ip), vehicle: Klucel (hydroxypropylcellulose) (HPC) 93 % of control | [9] 97 % of control | [10] 100 % of control

O=C1OC(=O)C2CC=CCC12 (centres undefined)
inactive: [11] 106 % of control | [12] 106 % of control | [13] 98 % of control

CC(=O)NC1C(OC(C)=O)OC2COCOC2C1OC(C)=O (centres undefined)
inactive: dose: 100.0 mg/kg/injection, schedule: Q01DX001 (ip), vehicle: saline with Tween-80 97 % of control | dose: 200.0 mg/kg/injection, schedule: Q01DX001 (ip), vehicle: saline with Tween-80 97 % of control | dose: 400.0 mg/kg/injection, schedule: Q01DX001 (ip), vehicle: saline with Tween-80 105 % of control

NC(=S)NNC(=O)/C=C/c1ccccc1
inactive: [6] 105 % of control | [7] 91 % of control | [8] 91 % of control

COc1ccc(C=O)c(O)c1
inactive: [14] 92 % of control | [15] 97 % of control | [16] 103 % of control | [17] 101 % of control | [18] 95 % of control | [19] 105 % of control

Cc1cc2c(cc1C)-c1ccccc1C2=O
inactive: [3] 102 % of control | [4] 102 % of control | [5] 96 % of control

O=S1(=O)CCNc2ccccc2O1
inactive: [9] 101 % of control | dose: 100.0 mg/kg/injection, schedule: Q01DX001 (ip), vehicle: Klucel (hydroxypropylcellulose) (HPC) 93 % of control | dose: 200.0 mg/kg/injection, schedule: Q01DX001 (ip), vehicle: Klucel (hydroxypropylcellulose) (HPC) 97 % of control | [10] 95 % of control

Cc1cc(N(C)C)ccc1N=Nc1ccccc1
inactive: dose: 50.0 mg/kg/injection, schedule: Q01DX001 (ip), vehicle: carboxymethylcellulose (CMC) 102 % of control | [3] 102 % of control | [4] 107 % of control | [5] 96 % of control

Clc1ccc(N=NNc2ccc(Cl)cc2)cc1
inactive: [20] 91 % of control | [11] 96 % of control | [21] 92 % of control | [12] 105 % of control | [22] 92 % of control | [13] 92 % of control

CCOc1ccc(/C=C2\N=C(c3ccc([N+](=O)[O-])cc3)OC2=O)cc1
inactive: [14] 97 % of control | [16] 87 % of control | [18] 94 % of control

CCO/C=C1\SC(=S)N(c2cccc(C)c2)C1=O
inactive: [14] 112 % of control | [15] 101 % of control | [16] 87 % of control | [17] 113 % of control | [19] 95 % of control

Nc1nc(N)c(N)c(Nc2ccc(Cl)cc2)n1
inactive: [1] 101 % of control | [2] 101 % of control

CC(=O)Nc1ccc(S(=O)(=O)Nc2ccccc2C(F)(F)F)cc1
inactive: [20] 93 % of control | [21] 104 % of control | [22] 91 % of control

CC(C)C[CH2][Pb]([Cl])([CH2]CC(C)C)[CH2]CC(C)C
inactive: dose: 0.03 mg/kg/injection, schedule: Q04DX002 (ip), vehicle: saline 96 % of control | dose: 0.05 mg/kg/injection, schedule: Q04DX002 (ip), vehicle: saline 102 % of control | dose: 0.1 mg/kg/injection, schedule: Q04DX002 (ip), vehicle: saline 96 % of control | dose: 0.2 mg/kg/injection, schedule: Q04DX002 (ip), vehicle: other 111 % of control | dose: 0.2 mg/kg/injection, schedule: Q04DX003 (ip), vehicle: other 101 % of control | dose: 0.78 mg/kg/injection, schedule: Q04DX003 (ip), vehicle: other 95 % of control

ClC1=C(Cl)C(Cl)(Cl)SS1
inactive: dose: 9.5 mg/kg/injection, schedule: Q01DX001 (ip), vehicle: other 100 % of control | dose: 10.0 mg/kg/injection, schedule: Q04DX003 (ip), vehicle: other 100 % of control | dose: 19.0 mg/kg/injection, schedule: Q01DX001 (ip), vehicle: other 103 % of control | dose: 20.0 mg/kg/injection, schedule: Q04DX003 (ip), vehicle: other 92 % of control | dose: 38.0 mg/kg/injection, schedule: Q01DX001 (ip), vehicle: other 91 % of control | dose: 40.0 mg/kg/injection, schedule: Q04DX003 (ip), vehicle: other 89 % of control | dose: 75.0 mg/kg/injection, schedule: Q01DX001 (ip), vehicle: other 93 % of control
